Experimental data reported in paper PMC10756276, “Highly specific σ2R/TMEM97 ligand FEM-1689 alleviates neuropathic pain and inhibits the integrated stress response” (Proceedings of the National Academy of Sciences of the …, 2023).
“Also recorded” adds a separate entry of the source. Where two headings read alike, the source gives them in different places.

How the values were obtained:
H1 = molecular target: T1, H1 (Homo sapiens, UniProt P35367); assay: PDSP competitive binding assay; details: 10 µM test article; read-out: Ki: primary assay inhibition of radioligand binding, H1
T1 construct: purchased NIMH Psychoactive Drug Screening Program (PDSP), University of North Carolina at Chapel Hill

Alpha2a = molecular target: T2, Alpha2a (Homo sapiens, UniProt P08913); assay: PDSP competitive binding assay; details: 10 µM test article; read-out: Ki: primary assay inhibition of radioligand binding, Alpha2a
T2 construct: purchased NIMH Psychoactive Drug Screening Program (PDSP), University of North Carolina at Chapel Hill

MOR = MOR (Homo sapiens, UniProt P35372); assay: PDSP competitive binding assay; details: 10 µM test article; read-out: Ki: primary assay inhibition of radioligand binding, MOR
[1] = tested on: SNI model of neuropathic pain, wild-type and TMEM97KO mice; assay: SNI model of neuropathic pain, von Frey mechanical hypersensitivity; assay type: in vivo, mouse; details: for mechanical hypersensitivity after SNI (von Frey): male and female
SERT = molecular target: T3, SERT (Homo sapiens, UniProt P31645); assay: PDSP competitive binding assay; details: 10 µM test article; read-out: Ki: primary assay inhibition of radioligand binding, SERT
T3 construct: purchased NIMH Psychoactive Drug Screening Program (PDSP), University of North Carolina at Chapel Hill

NET = NET (Homo sapiens, UniProt P23975); assay: PDSP competitive binding assay
H3 = molecular target: T4, H3 (Homo sapiens, UniProt Q9Y5N1); assay: PDSP competitive binding assay; details: 10 µM test article; read-out: Ki: primary assay inhibition of radioligand binding, H3
T4 construct: purchased NIMH Psychoactive Drug Screening Program (PDSP), University of North Carolina at Chapel Hill

Alpha1a = molecular target: T5, Alpha1a (Homo sapiens, UniProt P35348); assay: PDSP competitive binding assay
T5 sequence (P35348 1-466): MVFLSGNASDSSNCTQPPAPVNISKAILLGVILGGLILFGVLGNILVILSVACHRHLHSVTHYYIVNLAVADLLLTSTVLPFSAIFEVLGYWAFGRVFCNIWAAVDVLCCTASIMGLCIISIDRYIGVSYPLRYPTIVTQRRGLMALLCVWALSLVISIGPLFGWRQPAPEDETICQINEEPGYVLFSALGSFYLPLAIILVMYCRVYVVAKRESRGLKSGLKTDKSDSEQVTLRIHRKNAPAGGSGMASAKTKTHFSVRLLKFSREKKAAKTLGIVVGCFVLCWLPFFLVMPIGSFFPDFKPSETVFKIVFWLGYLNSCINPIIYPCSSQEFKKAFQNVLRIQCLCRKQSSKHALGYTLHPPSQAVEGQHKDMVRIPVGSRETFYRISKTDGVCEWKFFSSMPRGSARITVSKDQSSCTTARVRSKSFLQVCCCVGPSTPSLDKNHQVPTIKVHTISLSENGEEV

D1 = D1 (Homo sapiens, UniProt P21728); assay: PDSP competitive binding assay; details: 10 µM test article; read-out: Ki: primary assay inhibition of radioligand binding, D1
Beta 3 = molecular target: T6, Beta 3 (Homo sapiens, UniProt P13945); assay: PDSP competitive binding assay; details: 10 µM test article; read-out: Ki: primary assay inhibition of radioligand binding, Beta 3
T6 construct: purchased NIMH Psychoactive Drug Screening Program (PDSP), University of North Carolina at Chapel Hill

5HT1e = 5HT1e (Homo sapiens, UniProt P28566); assay: PDSP competitive binding assay; details: 10 µM test article; read-out: Ki: primary assay inhibition of radioligand binding, 5HT1e
σ2R/TMEM97 = σ2R/TMEM97 (Homo sapiens, UniProt Q5BJF2); assay: Competition binding with [3H]-ditolylguanidine in presence of (+)-pentazocine (NIMH PDSP)
[2] = Pharmacokinetic parameters after IP dosing (Fig. 2); assay type: in vivo
M1 = M1 (Homo sapiens, UniProt P11229); assay: PDSP competitive binding assay; details: 10 µM test article; read-out: Ki: primary assay inhibition of radioligand binding, M1
D2 = D2 (Homo sapiens, UniProt P14416); assay: PDSP competitive binding assay; details: 10 µM test article; read-out: Ki: primary assay inhibition of radioligand binding, D2
hERG = hERG (Homo sapiens, UniProt Q12809); assay: PDSP competitive binding assay (safety/nuisance target)
5HT2B = 5HT2B (Homo sapiens, UniProt P41595); assay: PDSP competitive binding assay; details: 10 µM test article; read-out: Ki: primary assay inhibition of radioligand binding, 5HT2B
PBR = molecular target: T7, PBR (Rattus norvegicus, UniProt P16257); assay: PDSP competitive binding assay; details: 10 µM test article; read-out: Ki: primary assay inhibition of radioligand binding, PBR
T7 construct: purchased NIMH Psychoactive Drug Screening Program (PDSP), University of North Carolina at Chapel Hill

M5 = molecular target: T8, M5 (Homo sapiens, UniProt P08912); assay: PDSP competitive binding assay; details: 10 µM test article; read-out: Ki: primary assay inhibition of radioligand binding, M5
T8 construct: purchased NIMH Psychoactive Drug Screening Program (PDSP), University of North Carolina at Chapel Hill

Beta2 = Beta2 (Homo sapiens, UniProt P07550); assay: PDSP competitive binding assay; details: 10 µM test article; read-out: Ki: primary assay inhibition of radioligand binding, Beta2
Alpha1d = molecular target: T9, Alpha1d (Homo sapiens, UniProt P25100); assay: PDSP competitive binding assay; details: 10 µM test article; read-out: Ki: primary assay inhibition of radioligand binding, Alpha1d
T9 construct: purchased NIMH Psychoactive Drug Screening Program (PDSP), University of North Carolina at Chapel Hill

Alpha1b = molecular target: T10, Alpha1b (Homo sapiens, UniProt P35368); assay: PDSP competitive binding assay; details: 10 µM test article; read-out: Ki: primary assay inhibition of radioligand binding, Alpha1b
T10 construct: purchased NIMH Psychoactive Drug Screening Program (PDSP), University of North Carolina at Chapel Hill

[3] = dose response curve, given as LogKi with negative sign

Chain of hERG (Q12809 whole entry): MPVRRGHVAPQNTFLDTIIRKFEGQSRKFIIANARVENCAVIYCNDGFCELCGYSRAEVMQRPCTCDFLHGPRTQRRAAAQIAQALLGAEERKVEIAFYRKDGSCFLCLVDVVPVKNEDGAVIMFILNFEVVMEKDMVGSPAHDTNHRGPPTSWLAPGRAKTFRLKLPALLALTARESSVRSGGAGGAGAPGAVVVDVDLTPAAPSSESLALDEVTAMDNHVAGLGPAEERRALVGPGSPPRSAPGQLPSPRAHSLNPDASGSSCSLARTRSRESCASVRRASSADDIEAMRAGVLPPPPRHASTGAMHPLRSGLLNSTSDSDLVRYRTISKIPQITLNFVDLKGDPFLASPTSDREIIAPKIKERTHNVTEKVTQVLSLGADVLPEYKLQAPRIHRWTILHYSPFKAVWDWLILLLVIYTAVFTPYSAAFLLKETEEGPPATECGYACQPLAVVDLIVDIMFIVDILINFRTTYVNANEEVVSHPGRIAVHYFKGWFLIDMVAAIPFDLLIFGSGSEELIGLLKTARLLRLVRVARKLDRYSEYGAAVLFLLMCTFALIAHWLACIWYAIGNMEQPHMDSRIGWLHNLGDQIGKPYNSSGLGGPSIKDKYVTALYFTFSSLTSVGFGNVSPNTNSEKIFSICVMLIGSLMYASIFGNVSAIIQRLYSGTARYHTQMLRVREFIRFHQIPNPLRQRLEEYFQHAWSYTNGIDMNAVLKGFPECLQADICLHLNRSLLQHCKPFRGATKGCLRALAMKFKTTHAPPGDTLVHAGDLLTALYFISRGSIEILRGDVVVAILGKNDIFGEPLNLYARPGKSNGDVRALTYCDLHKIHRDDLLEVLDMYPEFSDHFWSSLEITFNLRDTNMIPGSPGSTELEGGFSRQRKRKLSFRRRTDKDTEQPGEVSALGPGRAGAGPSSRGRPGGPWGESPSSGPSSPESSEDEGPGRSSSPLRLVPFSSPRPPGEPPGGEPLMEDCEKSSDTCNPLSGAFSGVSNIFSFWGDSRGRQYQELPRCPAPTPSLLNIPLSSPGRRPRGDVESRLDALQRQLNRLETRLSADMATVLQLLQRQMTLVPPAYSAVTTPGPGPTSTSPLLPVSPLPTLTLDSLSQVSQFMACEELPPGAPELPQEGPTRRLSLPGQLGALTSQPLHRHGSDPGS
Chain of NET (P23975 whole entry): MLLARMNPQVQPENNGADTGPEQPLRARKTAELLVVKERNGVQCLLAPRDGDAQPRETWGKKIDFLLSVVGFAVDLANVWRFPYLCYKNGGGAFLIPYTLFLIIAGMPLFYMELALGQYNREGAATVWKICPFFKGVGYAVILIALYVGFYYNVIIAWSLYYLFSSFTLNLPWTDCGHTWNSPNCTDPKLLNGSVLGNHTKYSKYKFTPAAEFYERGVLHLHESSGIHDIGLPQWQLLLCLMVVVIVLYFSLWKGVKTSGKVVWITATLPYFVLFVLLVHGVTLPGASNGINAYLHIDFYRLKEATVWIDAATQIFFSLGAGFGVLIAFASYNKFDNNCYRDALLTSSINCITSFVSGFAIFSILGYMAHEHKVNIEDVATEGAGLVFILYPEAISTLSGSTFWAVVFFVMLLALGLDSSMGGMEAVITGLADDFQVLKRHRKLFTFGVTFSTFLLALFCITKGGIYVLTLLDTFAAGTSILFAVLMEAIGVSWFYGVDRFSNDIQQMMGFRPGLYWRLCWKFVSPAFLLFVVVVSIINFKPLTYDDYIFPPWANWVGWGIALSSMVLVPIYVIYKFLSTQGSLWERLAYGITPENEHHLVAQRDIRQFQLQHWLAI
Chain of σ2R/TMEM97 (Q5BJF2 whole entry): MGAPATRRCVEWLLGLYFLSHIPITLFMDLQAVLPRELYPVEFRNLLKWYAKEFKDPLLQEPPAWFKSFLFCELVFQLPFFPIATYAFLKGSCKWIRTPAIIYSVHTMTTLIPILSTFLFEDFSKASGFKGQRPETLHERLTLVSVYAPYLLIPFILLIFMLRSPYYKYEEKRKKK
Chain of M1 (P11229 whole entry): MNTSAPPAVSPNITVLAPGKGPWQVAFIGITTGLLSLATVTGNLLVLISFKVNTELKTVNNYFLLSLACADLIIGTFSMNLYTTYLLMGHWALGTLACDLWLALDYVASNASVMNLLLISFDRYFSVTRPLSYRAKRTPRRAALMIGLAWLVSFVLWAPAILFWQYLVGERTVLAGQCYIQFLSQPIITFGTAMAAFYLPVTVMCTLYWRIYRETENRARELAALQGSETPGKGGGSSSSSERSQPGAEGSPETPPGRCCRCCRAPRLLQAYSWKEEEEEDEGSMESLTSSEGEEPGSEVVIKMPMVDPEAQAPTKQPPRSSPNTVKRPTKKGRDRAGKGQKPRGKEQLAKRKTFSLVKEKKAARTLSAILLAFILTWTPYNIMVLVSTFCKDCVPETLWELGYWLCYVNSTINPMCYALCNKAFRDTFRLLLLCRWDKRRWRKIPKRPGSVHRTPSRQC
Chain of MOR (P35372 whole entry): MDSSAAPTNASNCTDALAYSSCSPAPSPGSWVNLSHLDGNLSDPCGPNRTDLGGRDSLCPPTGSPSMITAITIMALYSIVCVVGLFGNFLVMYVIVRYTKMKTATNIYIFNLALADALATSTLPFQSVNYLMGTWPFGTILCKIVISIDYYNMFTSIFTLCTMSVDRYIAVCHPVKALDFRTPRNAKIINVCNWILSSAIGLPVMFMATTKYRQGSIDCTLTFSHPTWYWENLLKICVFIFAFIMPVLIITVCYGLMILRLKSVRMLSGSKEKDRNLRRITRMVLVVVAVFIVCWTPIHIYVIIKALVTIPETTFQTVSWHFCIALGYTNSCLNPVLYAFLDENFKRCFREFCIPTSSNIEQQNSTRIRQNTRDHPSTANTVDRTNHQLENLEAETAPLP
T10 sequence (P35368 whole entry): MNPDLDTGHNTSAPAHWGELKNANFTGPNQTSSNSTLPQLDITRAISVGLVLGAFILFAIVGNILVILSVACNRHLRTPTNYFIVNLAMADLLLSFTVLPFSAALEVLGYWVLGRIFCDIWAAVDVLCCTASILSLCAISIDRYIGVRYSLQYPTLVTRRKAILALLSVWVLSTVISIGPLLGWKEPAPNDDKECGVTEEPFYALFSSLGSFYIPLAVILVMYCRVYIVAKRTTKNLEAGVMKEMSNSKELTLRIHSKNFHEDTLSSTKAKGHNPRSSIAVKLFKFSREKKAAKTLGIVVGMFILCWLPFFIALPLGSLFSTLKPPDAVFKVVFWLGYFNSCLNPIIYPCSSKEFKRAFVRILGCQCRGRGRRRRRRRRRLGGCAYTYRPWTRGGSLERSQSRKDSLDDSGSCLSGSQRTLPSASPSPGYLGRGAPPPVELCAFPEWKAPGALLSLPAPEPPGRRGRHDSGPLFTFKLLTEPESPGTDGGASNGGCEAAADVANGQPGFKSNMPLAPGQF
T6 sequence (P13945 whole entry): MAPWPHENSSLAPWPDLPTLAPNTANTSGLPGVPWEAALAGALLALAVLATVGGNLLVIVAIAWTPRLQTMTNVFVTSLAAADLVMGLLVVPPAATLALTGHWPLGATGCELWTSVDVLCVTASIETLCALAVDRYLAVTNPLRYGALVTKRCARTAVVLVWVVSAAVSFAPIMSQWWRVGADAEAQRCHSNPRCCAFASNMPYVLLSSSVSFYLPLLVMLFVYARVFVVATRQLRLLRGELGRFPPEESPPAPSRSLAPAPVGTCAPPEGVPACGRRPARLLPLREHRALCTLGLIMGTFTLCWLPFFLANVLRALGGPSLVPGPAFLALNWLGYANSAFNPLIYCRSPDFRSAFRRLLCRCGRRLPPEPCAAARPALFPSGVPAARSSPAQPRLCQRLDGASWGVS
Chain of D1 (P21728 whole entry): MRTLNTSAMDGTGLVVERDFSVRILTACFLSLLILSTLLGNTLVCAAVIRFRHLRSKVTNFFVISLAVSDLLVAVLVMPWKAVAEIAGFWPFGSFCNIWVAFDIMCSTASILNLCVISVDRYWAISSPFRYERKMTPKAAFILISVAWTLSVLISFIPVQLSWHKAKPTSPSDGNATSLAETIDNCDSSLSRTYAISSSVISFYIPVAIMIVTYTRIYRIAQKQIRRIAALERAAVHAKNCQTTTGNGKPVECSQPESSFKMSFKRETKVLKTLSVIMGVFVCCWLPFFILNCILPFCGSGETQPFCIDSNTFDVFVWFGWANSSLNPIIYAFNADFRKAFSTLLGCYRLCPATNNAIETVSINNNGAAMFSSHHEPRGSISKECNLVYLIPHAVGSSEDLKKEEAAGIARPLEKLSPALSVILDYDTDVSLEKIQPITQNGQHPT
Chain of D2 (P14416 whole entry): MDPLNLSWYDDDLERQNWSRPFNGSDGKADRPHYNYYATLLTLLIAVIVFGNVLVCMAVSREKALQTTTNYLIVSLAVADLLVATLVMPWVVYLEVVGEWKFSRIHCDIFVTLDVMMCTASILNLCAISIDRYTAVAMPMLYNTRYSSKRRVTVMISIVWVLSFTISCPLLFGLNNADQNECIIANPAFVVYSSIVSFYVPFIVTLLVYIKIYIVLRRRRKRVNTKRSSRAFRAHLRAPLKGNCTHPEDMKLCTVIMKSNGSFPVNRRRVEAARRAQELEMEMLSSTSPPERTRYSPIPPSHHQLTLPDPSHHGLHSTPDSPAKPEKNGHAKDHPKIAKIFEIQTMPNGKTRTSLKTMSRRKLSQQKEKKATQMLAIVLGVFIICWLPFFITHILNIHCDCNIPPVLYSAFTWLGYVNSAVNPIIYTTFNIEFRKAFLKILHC
Chain of 5HT1e (P28566 whole entry): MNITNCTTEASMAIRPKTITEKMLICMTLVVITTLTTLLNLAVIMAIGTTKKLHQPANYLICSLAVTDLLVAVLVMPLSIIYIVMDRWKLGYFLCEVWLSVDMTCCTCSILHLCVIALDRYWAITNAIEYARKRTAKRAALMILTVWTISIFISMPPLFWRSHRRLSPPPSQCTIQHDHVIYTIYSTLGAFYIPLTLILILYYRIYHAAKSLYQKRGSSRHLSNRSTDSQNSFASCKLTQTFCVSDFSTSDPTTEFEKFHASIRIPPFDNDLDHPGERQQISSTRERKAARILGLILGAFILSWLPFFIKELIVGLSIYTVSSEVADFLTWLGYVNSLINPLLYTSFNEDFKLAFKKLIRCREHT

OCCCN1CC[C@@H]2C[C@H]1c1cc(-c3ccc(C(F)(F)F)cc3)ccc12 [FEM-1689]
inhibition at 10 µM (H1): < 50%
inhibition at 10 µM (Alpha2a): < 50%
inhibition at 10 µM (MOR): < 50%
mechanical hypersensitivity after SNI (von Frey) ([1]; single 10 mg/kg IV, 30 d after SNI, wild-type and TMEM97KO, 7 d, 10 mg/kg): little or no change for mechanical sensitivity in either group; also recorded: not sufficient to reduce mechanical hypersensitivity
mechanical hypersensitivity after SNI (von Frey) ([1]; single 20 mg/kg IV, TMEM97KO mice, 20 mg/kg): failed to reduce mechanical hypersensitivity
duration of reversal of mechanical hypersensitivity ([1]; single 20 mg/kg IV, wild-type mice): roughly 4 d
mechanical hypersensitivity after SNI (von Frey) ([1]; single 20 mg/kg IV, wild-type mice, 20 mg/kg): effectively reversed mechanical hypersensitivity; also recorded: maximal antinociceptive effect
inhibition at 10 µM (SERT): < 50%
Ki (NET; Ki, NET, Run 1): 668 nM
Ki (NET; Ki, NET, Run 2): 221 nM
Ki (NET; Ki, NET, Run 3): 209 nM
Ki (NET; Ki, NET, Run 4): 519 nM
selectivity for σ2R/TMEM97 vs NET (NET; ratio of Ki): 24 fold
Ki (NET; read-out: NET Ki, average of four Ki determinations): 405 ± 227 nM
inhibition at 10 µM (H3): < 50%
LogKi, Alpha1A (Alpha1a; [3]): -5.70
Ki (Alpha1a; read-out: Alpha1a Ki, single determination): 1990 nM
Ki (Alpha1a; read-out: Ki, Alpha1A, dose response curve): 1990 nM
inhibition at 10 µM (D1): < 50%
inhibition at 10 µM (Beta 3): < 50%
inhibition at 10 µM (5HT1e): < 50%
Ki (σ2R/TMEM97): 11.2 nM
Ki (σ2R/TMEM97; read-out: σ2R/TMEM97 Ki, averages ± SD): 17 ± 8 nM
brain to plasma ratio (AUClast) ([2]; IP): 20.5
Cmax (IP) ([2]; brain, IP): 10916 ng/mL
t1/2 (IP) ([2]; brain, IP): 11.4 h
brain entry ([2]; pharmacokinetic experiments, Fig. 2): readily enters the brain
Cmax (IP) ([2]; plasma, IP): 508 ng/mL
t1/2 (IP) ([2]; plasma, IP): 21.7 h
inhibition at 10 µM (M1): < 50%
inhibition at 10 µM (D2): < 50%
LogKi, HERG (hERG; [3]): -6.08
Ki (hERG; dose response curve, read-out: Ki, HERG): 839 nM
Ki (hERG; single determination, read-out: hERG Ki): 839 nM
inhibition at 10 µM (5HT2B): < 50%
inhibition at 10 µM (PBR): < 50%
inhibition at 10 µM (M5): < 50%
inhibition at 10 µM (Beta2): < 50%
inhibition at 10 µM (Alpha1d): < 50%
inhibition at 10 µM (Alpha1b): < 50%
